This test has as its target T1, GloA (Salmonella enterica, UniProt P0A1Q2).
T1 construct: full length, His-tag (modified pET28a, tac promoter), E. coli BL21(DE3); unglycosylated form
T1 sequence (P0A1Q2 1-135): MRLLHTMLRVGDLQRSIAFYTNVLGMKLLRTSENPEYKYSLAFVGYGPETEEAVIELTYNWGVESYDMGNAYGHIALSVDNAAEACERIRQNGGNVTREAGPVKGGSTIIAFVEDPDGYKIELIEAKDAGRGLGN
In words: S-lactoylglutathione production at OD240. It is filed as biochemical. The following applies: unglycosylated GloA 50 nM; hemithioacetal from 5 mM glutathione + 5 mM methylglyoxal; 100 mM NaH2PO4 pH 7.0.

The record followed here is publication PMC7884692, “Arginine glycosylation enhances methylglyoxal detoxification” (Scientific Reports, 2021).

Consider `C[C@@H](O)C(=O)SC[C@H](NC(=O)CC[C@H](N)C(=O)O)C(=O)NCC(=O)O` [S-lactoylglutathione], for which the “S-lactoylglutathione production at OD240” value is “both hemithioacetal consumption and S-lactoylglutathione production was measured as a function of time”.
